# Results as given in patent EP4567040A1, “CRYSTAL FORM OF FUSED TRICYCLIC DERIVATIVE AND PREPARATION METHOD” (Jiangsu Hengrui Pharmaceuticals Co., Ltd., priority 2022, dated 2024).
# Key:
# [1] = Thermodynamic solubility testing in pH 7.4 phosphate buffer; assay type: physicochemical; details: sodium phosphate buffer, aqueous buffer, thermodynamic from solid, 25 °C
# Method: The thermodynamic solubility of the compounds in a pH 7.4 phosphate buffer was determined. Both the sample supernatant and the standard of a known concentration were tested by LC/MS/MS.
# 15.6 g of NaH2PO4·2H2O was weighed out, placed into a 1 L glass flask, and dissolved in 1 L of deionized water. The pH of the solution was approximately 4.7, and then the pH was adjusted to 7.4 with 10 M NaOH.
# 1 mg of each compound powder was accurately weighed out and placed in a glass tube. The pH 7.4 sodium phosphate buffer was added to the glass tube, with 1 mL of the buffer added for each milligram of the compound powder. A stirring bar was added to each glass tube, and the glass tube was closed with a cap. […] The observations in each glass tube were recorded. […] The recorded observations and dilution factors
# 1 mg of each compound powder was accurately weighed out and added to a glass tube, and DMSO was added to each glass tube, with 1 mL of DMSO added for each milligram of the compound powder. […] Samples were analyzed by LC/MS/MS. […]
# All calculations were performed using Microsoft Excel. Samples were analyzed by LC/MS/MS and quantified based on the standard of a known concentration. The solubility of the test compounds was calculated using the following formula: [Sample] = Area Ratio sample × DF sample × [STD] / Area Ratio STD DF: dilution factor. […]
# CYP2C9 = CYP2C9 (Homo sapiens, UniProt P11712); experiment: biochemical
# Method: (§1) The effects of different concentrations of the test compounds on the metabolic reactions of phenacetin (CYP1A2), diclofenac sodium (CYP2C9), S-mephenytoin (CYP2C19), bufuralol hydrochloride (CYP2D6), and midazolam (CYP3A4/5) were assessed by liquid chromatography-tandem mass spectrometry (LC/MS/MS).
# (§2) Then, 200 µL of an acetonitrile solution containing 3% formic acid and 40 nM internal standard verapamil was added, and the mixture was centrifuged at 4000 rpm for 50 min. The mixture was cooled on ice for 20 min and centrifuged at 4000 rpm for 20 min to precipitate protein. 200 µL of the supernatant was taken for LC/MS/MS analysis.
# (§3) The peak area was calculated based on the chromatogram. The residual activity proportion (%) was calculated using the following formula: peak area ratio = peak area of metabolite / peak area of internal standard [formula]
# (§4) The half maximal inhibitory concentrations (IC50) against CYP were calculated using Excel XLfit 5.3.1.3.
# CYP2C19 = CYP2C19 (Homo sapiens, UniProt P33261); experiment: biochemical
# Method: as §1, §2, §3, §4
# CDK4/CyclinD1 = molecular target: T1, CDK4/CyclinD1 (Homo sapiens, UniProt P11802); experiment: Kinase activity assay, mobility shift assay (CDK4/CyclinD1); assay type: biochemical; details: Table 18; read-out: CDK4/D1 IC50
# T1 construct: purchased ProQinase 0142-0143-1
# Method: In vitro CDK kinase activity was tested using a mobility shift assay. […] A proper amount of kinase was added to the 1× kinase buffer to prepare a 2.5× enzyme solution. 5× compound dilutions (1× kinase buffer, 10% DMSO) corresponding to the test concentrations of the compounds were prepared. […] 5 µL of 5× compound dilution and 10 µL of 2.5× enzyme solution were added to reaction wells of a 384-well reaction plate. After thorough mixing, the plate was incubated at room temperature for 10 min. […] The reaction plate was incubated at 28 °C for 60 min (biochemical incubator model: SPX-100B-Z). 30 µL of stop solution was added to the 384-well reaction plate to stop the reactions, and the plate was centrifuged at 1000 rpm for 1 min.
# IC50 values for the compounds were obtained by fitting using XLFit excel add-in version 5.4.0.8. Fitting formula: Y = Bottom + (Top−Bottom)/(1+((IC50/X))^(∧)HillSlope). [formula]
# CDK9/CyclinT1 = molecular target: T2, CDK9/CyclinT1 (Homo sapiens, UniProt P50750); experiment: Kinase activity assay, ADP-Glo (CDK9/CyclinT1); assay type: biochemical; details: Table 18; read-out: CDK9/T1 IC50
# T2 construct: purchased Wuxi Biortus BP480/792/691
# Method: The starting concentration for the in vitro CDK (CDK2 and CDK9) kinase activity assay was 1 µM and was 3-fold diluted to a total of 10 concentrations, and each concentration was tested in duplicate. The compound PHA-793887 was used as a control compound.
# A 1× kinase reaction buffer (40 mM Tris-HCl, pH 7.4, 20 mM […], 0.1 mg/mL BSA, 50 µM DTT), 1 volume of 5× kinase reaction buffer, and 4 volumes of water were prepared, and DTT (final concentration: 50 µM) was added. 50 nL of diluted compound working solution (final concentration of DMSO: 1%) was transferred to each well of a reaction plate (784075, Greiner) using Echo655. The reaction plate was sealed with a plate sealing film and centrifuged at 1000 g for 1 min. 2× enzyme (0.3 ng/µL CDK2/CyclinE1 or CDK9/CyclinT1) was prepared using the 1× kinase reaction buffer. 2.5 µL of the above kinase solution was added to each well. The reaction plate was sealed with a plate sealing film, centrifuged at 1000 g for 1 min, and left to stand at room temperature for 10 min. A mixture of 2× kinase substrate and ATP was prepared using the 1× kinase reaction buffer. 2× CDK2/CylinE1 kinase substrate was 0.4 mg/mL Histone H1 and 30 µM ATP. 2.5 µL of the mixture of 2× Histone H1 and ATP was added to the reaction plate. The plate was centrifuged at 1000 g for 30 s, and the reaction was started. […] The luminescence signals were obtained using Envision 2104. […]
# Chain of CYP2C19 (P33261 whole entry): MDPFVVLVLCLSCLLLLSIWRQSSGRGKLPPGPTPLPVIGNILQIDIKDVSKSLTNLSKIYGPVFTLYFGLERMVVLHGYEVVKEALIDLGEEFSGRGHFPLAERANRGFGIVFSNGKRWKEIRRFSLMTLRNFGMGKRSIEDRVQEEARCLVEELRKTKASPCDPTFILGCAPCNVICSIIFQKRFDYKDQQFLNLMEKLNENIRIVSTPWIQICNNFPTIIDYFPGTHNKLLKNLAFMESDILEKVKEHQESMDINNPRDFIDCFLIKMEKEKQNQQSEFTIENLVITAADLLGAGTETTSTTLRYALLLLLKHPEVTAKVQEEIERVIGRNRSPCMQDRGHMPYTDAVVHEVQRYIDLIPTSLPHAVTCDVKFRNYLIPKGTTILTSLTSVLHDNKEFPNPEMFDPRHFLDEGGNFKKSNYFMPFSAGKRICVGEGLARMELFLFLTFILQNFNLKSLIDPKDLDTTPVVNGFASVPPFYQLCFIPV
# T2 sequence (P50750 whole entry, species assumed): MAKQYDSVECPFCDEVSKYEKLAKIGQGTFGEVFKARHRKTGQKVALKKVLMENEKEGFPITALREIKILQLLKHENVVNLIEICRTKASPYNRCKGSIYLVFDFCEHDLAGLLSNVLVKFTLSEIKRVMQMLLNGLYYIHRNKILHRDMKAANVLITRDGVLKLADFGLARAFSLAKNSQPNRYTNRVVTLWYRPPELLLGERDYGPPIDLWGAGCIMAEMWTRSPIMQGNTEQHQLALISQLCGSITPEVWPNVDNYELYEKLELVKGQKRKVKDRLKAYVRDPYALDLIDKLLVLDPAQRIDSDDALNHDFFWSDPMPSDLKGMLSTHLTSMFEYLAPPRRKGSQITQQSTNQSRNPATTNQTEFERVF
# T2 sequence (O60563 whole entry partner, species assumed): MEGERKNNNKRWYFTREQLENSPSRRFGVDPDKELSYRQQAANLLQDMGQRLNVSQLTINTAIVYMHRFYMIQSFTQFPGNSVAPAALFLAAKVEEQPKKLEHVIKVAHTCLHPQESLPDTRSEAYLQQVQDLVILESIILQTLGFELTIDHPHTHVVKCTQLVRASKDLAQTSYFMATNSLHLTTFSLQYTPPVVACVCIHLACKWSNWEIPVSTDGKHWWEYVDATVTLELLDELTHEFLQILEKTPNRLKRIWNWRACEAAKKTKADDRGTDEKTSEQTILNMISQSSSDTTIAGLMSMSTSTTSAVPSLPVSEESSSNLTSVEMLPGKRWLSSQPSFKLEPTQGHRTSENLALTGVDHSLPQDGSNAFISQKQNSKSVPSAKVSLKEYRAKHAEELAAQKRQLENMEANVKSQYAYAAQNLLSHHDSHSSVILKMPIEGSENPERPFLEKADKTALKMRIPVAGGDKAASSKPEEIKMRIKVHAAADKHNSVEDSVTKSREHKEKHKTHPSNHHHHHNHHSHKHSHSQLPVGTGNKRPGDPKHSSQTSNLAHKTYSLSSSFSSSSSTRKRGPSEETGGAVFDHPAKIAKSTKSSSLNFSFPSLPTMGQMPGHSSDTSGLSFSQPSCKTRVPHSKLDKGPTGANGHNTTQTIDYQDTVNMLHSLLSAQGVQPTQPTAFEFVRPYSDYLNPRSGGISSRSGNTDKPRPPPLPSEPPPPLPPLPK
# Chain of CYP2C9 (P11712 whole entry): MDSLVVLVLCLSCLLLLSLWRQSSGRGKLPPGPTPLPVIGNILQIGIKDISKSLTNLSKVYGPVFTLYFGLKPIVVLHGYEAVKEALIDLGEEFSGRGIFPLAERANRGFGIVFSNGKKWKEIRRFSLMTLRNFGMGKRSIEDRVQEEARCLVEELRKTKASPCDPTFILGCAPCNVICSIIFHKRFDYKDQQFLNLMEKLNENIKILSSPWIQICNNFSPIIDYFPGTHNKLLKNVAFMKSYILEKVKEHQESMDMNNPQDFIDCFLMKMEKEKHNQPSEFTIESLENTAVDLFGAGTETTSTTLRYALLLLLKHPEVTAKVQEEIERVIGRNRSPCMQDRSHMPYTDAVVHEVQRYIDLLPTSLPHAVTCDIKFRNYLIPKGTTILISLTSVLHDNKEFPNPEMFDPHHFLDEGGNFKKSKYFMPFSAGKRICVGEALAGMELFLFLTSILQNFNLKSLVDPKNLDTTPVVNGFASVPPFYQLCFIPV
# T1 sequence (P11802 whole entry): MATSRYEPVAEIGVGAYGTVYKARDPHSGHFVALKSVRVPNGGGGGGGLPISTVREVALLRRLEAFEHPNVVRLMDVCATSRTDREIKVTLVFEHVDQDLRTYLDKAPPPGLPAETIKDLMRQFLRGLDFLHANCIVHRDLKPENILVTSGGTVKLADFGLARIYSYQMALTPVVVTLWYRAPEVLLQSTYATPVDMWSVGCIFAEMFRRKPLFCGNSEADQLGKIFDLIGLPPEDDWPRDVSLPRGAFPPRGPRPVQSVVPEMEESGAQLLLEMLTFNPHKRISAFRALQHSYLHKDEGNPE
# T1 sequence (P24385 whole entry partner): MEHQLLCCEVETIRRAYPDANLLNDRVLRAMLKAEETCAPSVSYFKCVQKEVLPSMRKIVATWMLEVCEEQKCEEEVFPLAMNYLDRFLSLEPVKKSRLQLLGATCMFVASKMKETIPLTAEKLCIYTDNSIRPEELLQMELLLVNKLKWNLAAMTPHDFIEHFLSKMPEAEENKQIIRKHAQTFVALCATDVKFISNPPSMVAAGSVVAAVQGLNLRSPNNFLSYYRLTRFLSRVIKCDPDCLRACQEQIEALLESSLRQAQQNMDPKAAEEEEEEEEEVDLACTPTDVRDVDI
solubility at 24 h [1],IC50 (CYP2C9),IC50 (CYP2C19),IC50 (CDK4/CyclinD1),IC50 (CDK9/CyclinT1),SMILES
2200 µM,> 30 µM,> 30 µM,8.2 nM,> 1000 nM,"C[C@H]1COc2c(-c3nc(N[C@@H]4CCOC[C@H]4O)ncc3Cl)cc(F)c3nc(C(C)(C)O)n1c23 (single isomer, unassigned) [Isomer 1 with a retention time of 2.078 min]"
2130 µM,> 30 µM,> 30 µM,14 nM,> 1000 nM,"C[C@@H]1COc2c(-c3nc(N[C@@H]4CCOC[C@H]4O)ncc3Cl)cc(F)c3nc(C(C)(C)O)n1c23 (single isomer, unassigned) [Isomer 2 with a retention time of 1.887 min]"
